For data set [1], the system named is normal human fibroblast MRC5. In words: CellTitre Glo in vitro cytotoxicity, MRC5. The data set is classed as cell-based. How it is done:
(§1) In vitro cytotoxicity of AMS-related structures was also assessed to determine the modifications of AMS that alter cytotoxicity. The in vitro cytotoxicity of each of these AMS-related structures was tested against both hepatocellular carcinoma HepG2 and normal human fibroblast MRC5 cell lines using a CellTitre Glo® assay (Promega, Madison, WI) The modifications and results are provided in Table 1 below.

The test system of data set [2] is hepatocellular carcinoma HepG2. In words: CellTitre Glo in vitro cytotoxicity, HepG2. The format is cell-based. How it is done:
This example describes the synthesis of exemplary prodrugs based on sulfamoyladenosine (AMS) (structure 1c) (FIG. 2C) for cleavage by the bacterial hydrolase enzyme CPG2. AMS is a close analog of nucleocidin and a potent cytotoxic molecule (HepG2 IC50=9 nM). […] Based on these SAR data, AMS prodrug 1a (“P-AMS”; FIG. 2C) was synthesized from 2′,3′-O-isopropylidene-5′-O-TBS-adenosine (structure 3, FIG. 2D) by 6-N-acylation with CDI-activated bis-O-t-Bu-glutamate (30%), desilylation (TBAF), sulfamoylation (H2NSO2C1, DMA), and acetonide hydrolysis (TFA, H2O, 15% over 3 steps). Two alternative N-sulfamate-linked prodrugs (not shown) attached via CO-PAB-CO and TML-CO linkers were synthesized (FIG. 2B). A more detailed discussion of the P-AMS synthesis and the synthesis of the N-sulfamate-linked prodrug attached via a TML-CO linker (“Trimethyllock-AMS”) is provided below in this example. As an alternative cytotoxic using a known anticancer therapeutic, the mustard prodrug ZD2767P (structure 2a, FIG. 2C) was also synthesized as previously reported (Springer et al., J Med Chem. 37(15):2361-70(1994) and Niculescu-Duvaz et al., Tetrahedron Lett. 46(40):6919-22 (2005)).
as §1

Data set [3] has as its system primary T-cells. In words: CellTitre Glo in vitro cytotoxicity, primary T cells. The data set is classed as cell-based, human.
Data set [4] deals with Jurkat (T cell). Description: CellTitre Glo in vitro cytotoxicity, Jurkat. The data set is classed as cell-based, human.
For data set [5], the system named is HEK293T (kidney). In words: CellTitre Glo in vitro cytotoxicity, HEK293T. The format is cell-based, human.
The subject of data set [6] is HL 60 (leukemia). In words: CellTitre Glo in vitro cytotoxicity, HL 60. The data set is classed as cell-based. How it is done:
(§2) The in vitro cytotoxicity of AMS (structure 1c) and its prodrug variant (structure 1a) was tested against a variety of cell lines using a CellTitre Glo® assay (Promega, Madison, WI). […] Moreover, co-treatment with the prodrug and supernatant from CPG2-transfected HEK293T cells (see Example 3) led to cytotoxicity approaching that of the free drug (50 nM), consistent with CPG2-mediated cleavage of the prodrug to release the active parent drug. […] In contrast, AMS prodrug 1a was not activated by HEK293T cells expressing CPG intracellularly, which likely attributed to poor cell-penetrance of the prodrug due to the free bis-anionic gluatamate moiety.

Data set [7] concerns non-small cell lung carcinoma cell line PC9. Description: CellTitre-Glo viability, PC9. To be noted: PC9, 48 hours. The format is cell-based, human. How it is done: FIG. 14 provides exemplary data showing that Human T cells, but not cancer cells, are resistant to Erlotinib. (A) Human Jurkat T cells (red circle) and human non-small cell lung carcinoma cell lines PC9 (black square) and HCC827 (blue triangle) were treated with increasing concentrations of the receptor tyrosine kinase inhibitor Erlotinib. […] Cell viability was measured at 48 hours by CellTitre-Glo® luminescence.
FIG. 14 provides exemplary data showing that Human T cells, but not cancer cells, are resistant to Erlotinib. Human Jurkat T cells, primary T cells and human non-small cell lung carcinoma cell lines PC9 and HCC827 were treated with increasing concentrations of the receptor tyrosine kinase inhibitor Erlotinib. […] PC9 cells were incubated in the presence of Erlotinib, P-Erlotinib, or P-Erlotinib in the presence of purified CPG2. Cell viability was measured at 48 hours by CellTitre-Glo® luminescence.

The test system of data set [8] is non-small cell lung carcinoma cell line HCC827. Description: CellTitre-Glo viability, HCC827. The format is cell-based, human. To be noted: HCC827, 48 hours.
Procedure: Human Jurkat T cells, primary T cells and human non-small cell lung carcinoma cell lines PC9 and HCC827 were treated with increasing concentrations of the receptor tyrosine kinase inhibitor Erlotinib. […] Cell viability was measured at 48 hours by CellTitre-Glo® luminescence.
Data set [9] is described as follows: Cell permeability in CACO-2 cells. The data set is classed as in vitro ADME, human. The following applies: human. In general terms: Caco-2 monolayers are a common model of the intestinal barrier.
For data set [10], the system named is Jurkat T cells. Description: Jurkat viability with prodrug plus supernatant from CPG2-secreting HEK293T cells. The format is cell-based, human. How it is done: as §2
Jurkat T cells were exposed to increasing concentrations of AMS (circle) or Pro-AMS with media alone (triangle) or supernatant from CPG2-secreting HEK293T cells (square). Cell viability was measured at 48 hours by CellTitre-Glo® luminescence assay.
Jurkat T cells were exposed to increasing concentrations of ZD2767P with media alone (triangle) or supernatant from CPG2-secreting HEK293T cells (square). Cell viability was measured at 48 hours by CellTitre-Glo® luminescence assay.

Data set [11] concerns SET2 cells. In words: SET2 viability with prodrug plus recombinant enzyme or enzyme-containing supernatant. The data set is classed as cell-based. The following applies: Beta-lactamase supernatant; control media did not. How it is done: Recombinant CPG2 protein was initially synthesized, purified (FIGS. 18A and 18B), and incubated with increasing concentrations of prodrug in a glutamate release assay (FIG. 17C). Mass spectrometry was used to determine that the glutamate moiety was released from all of the glutamate prodrugs. The in vitro cytotoxicity of the prodrugs (FIG. 17B) were tested against the myeloid leukemia cell line SET2 using a CellTitre Glo® assay (Promega, Madison, WI).
SET2 cells were exposed to increasing concentrations of AMS (square) or glut-AMS with media alone (− control, triangle) or supernatant from CPG2-secreting HEK293t cells (circle). Cell viability was measured by CellTitre-Glo® luminescence assay.
Thus, antigen-dependent expansion of SEAKER T cells results in increased output of enzyme into the extracellular milieu.
To determine to respective enzyme output of the Beta-lactamase constructs relative to the previous CPG2 constructs, a quantitative sandwich ELISA was used to determine the concentration (ng/mL) of purified recombinant CPG2, and a quantitative nitrocefin assay was used to determine the concentration (ng/mL) of purified recombinant Beta-lactamase (FIG. 25A). Cell viability was measured by CellTitre-Glo® luminescence in the presence of prodrug (glut-AMS or ceph-AMS) and varying concentrations of purified recombinant CPG2 or Beta-lactamase (FIG. 25B).

Data set [12] concerns myeloid leukemia cell line SET2. Description: CellTitre Glo in vitro cytotoxicity, SET2. The data set is classed as cell-based. To be noted: Set2; prodrug vs AMS.
Where [13] appears, read: Caco-2, with Ver (so in the source), concentration not stated, + Ver.

Several values for one entry are separate records, joined by “and”; a condition that tells them apart may be missing. Identical values can stand only once. Like-named read-outs stand apart in the source and are kept apart here. Some results are limits rather than exact numbers.

Results on 21 molecules are retold here after patent US12178830B2, “Compositions and methods for adoptive cell therapy for cancer” (MEMORIAL SLOAN KETTERING CANCER CENTER, priority 2017, dated 2024).

With `Nc1nc(N)c2ncn([C@@H]3O[C@H](COS(N)(=O)=O)[C@@H](O)[C@H]3O)c2n1` [2-NH2-AMS], the concentration for half-maximal inhibition (IC50) in [1] was < 1 µM and 1.17 µM; in [2] (read-out: IC50, HepG2), < 1 µM and 1.75 µM.

As for `Nc1nc(Nc2ccccc2)nc2c1ncn2[C@@H]1O[C@H](COS(N)(=O)=O)[C@@H](O)[C@H]1O` [2-NHPh-AMS], the IC50 is 124 µM in data set [1] and > 500 µM in data set [2] (read-out: IC50, HepG2).

For `Nc1nc(-c2ccccc2)nc2c1ncn2[C@@H]1O[C@H](COS(N)(=O)=O)[C@@H](O)[C@H]1O` [2-phenyl-AMS], the IC50 in data set [1] is > 500 µM; in [2] (read-out: IC50, HepG2), ~500 µM.

`Nc1ncnc2c1ncn2[C@H]1C[C@H](O)[C@@H](COS(N)(=O)=O)O1` [2′-deoxy-AMS]: in [2] (read-out: IC50, HepG2), the IC50 is < 1 µM and 0.55 µM.

In the case of `NS(=O)(=O)OC[C@H]1O[C@@H](n2cnc3c(NC4CC4)ncnc32)[C@H](O)[C@@H]1O` [6-NCyp-AMS], the half-inhibitory concentration (IC50) is 7.2 µM in data set [1] and 10.9 µM in data set [2] (read-out: IC50, HepG2).

For the molecule `CNc1ncnc2c1ncn2[C@@H]1O[C@H](COS(N)(=O)=O)[C@@H](O)[C@H]1O` [6-NHMe-AMS], the IC50 in data set [1] stood at 0.9 µM; in data set [2] (read-out: IC50, HepG2) it was 1.8 µM.

For `CN(C)c1ncnc2c1ncn2[C@@H]1O[C@H](COS(N)(=O)=O)[C@@H](O)[C@H]1O` [6-NMe2-AMS], the half-maximal inhibitory concentration (IC50) is > 500 µM in [1] and > 500 µM in [2] (read-out: IC50, HepG2).

On to `COc1ncnc2c1ncn2[C@@H]1O[C@H](COS(N)(=O)=O)[C@@H](O)[C@H]1O` [6-OMe-AMS], for which the IC50 in data set [1] was determined as 129 µM; in [2] (read-out: IC50, HepG2) it was 141 µM.

Take `Nc1ncnc2c1nc(Cl)n2[C@@H]1O[C@H](COS(N)(=O)=O)[C@@H](O)[C@H]1O` [8-Cl-AMS]: the half-inhibitory concentration (IC50) in [1] was 3.2 µM and 3.51 µM.

Regarding `CCCc1nc2c(N)ncnc2n1[C@@H]1O[C@H](COS(N)(=O)=O)[C@@H](O)[C@H]1O` [8-propyl-AMS], the IC50 in [1] was > 500 µM; in data set [2] (read-out: IC50, HepG2), > 500 µM.

Consider `Nc1ncnc2c1ncn2[C@@H]1O[C@H](CNS(N)(=O)=O)[C@@H](O)[C@H]1O` [AMSN], for which the half-maximal inhibitory concentration (IC50) in [1] was 0.39 µM; in data set [2] (read-out: IC50, HepG2), 0.36 µM.

For `Nc1ncnc2c1ncn2[C@@H]1O[C@H](COS(N)(=O)=O)[C@@H](O)[C@H]1O` [AMS], the IC50 amounted to 0.03 µM in data set [1]; 0.066 µM in [3] (primary T-cells, read-out: IC50); 0.018 µM in data set [4] (Jurkat, read-out: IC50); 0.666 µM in data set [5] (HEK293T, read-out: IC50); 0.07 µM in [6]; 0.009 µM in data set [2] (read-out: HepG2 IC50).

For `Nc1ccn([C@@H]2O[C@H](COS(N)(=O)=O)[C@@H](O)[C@H]2O)c(=O)n1` [CMS], the IC50 in [1] was > 500 µM; in data set [2] (read-out: IC50, HepG2), > 500 µM.

With `C#Cc1cccc(Nc2ncnc3cc(OCCOC)c(OCCOC)cc23)c1` [Erlotinib, reference compound], the “response to increasing concentrations” value in data set [7] is given as “significant cell death”; in data set [3] (primary T cells), “exhibited resistance”; in data set [4] (T cell lines (Jurkat), 48 hours), “exhibited resistance”; in data set [8], “significant cell death”.

For `Nc1nc2c(ncn2[C@@H]2O[C@H](COS(N)(=O)=O)[C@@H](O)[C@H]2O)c(=O)[nH]1` [GMS], the IC50 was > 500 µM in [1] and > 500 µM in data set [2] (read-out: IC50, HepG2).

For the molecule `NS(=O)(=O)OC[C@H]1O[C@@H](n2cnc3c(O)ncnc32)[C@H](O)[C@@H]1O` [IMS], the IC50 in [1] is > 500 µM; in data set [2] (read-out: IC50, HepG2), > 500 µM.

Regarding `CN(C)C(=O)C(CCN1CCC(O)(c2ccc(Cl)cc2)CC1)(c1ccccc1)c1ccccc1` [Loperamide], the Papp A→B in data set [9] (setting [13]) was determined as 10.5 ± 1.5 ×10⁻⁶ cm/s; in data set [9] (Caco-2), 2.2 ± 0.3 ×10⁻⁶ cm/s. Moreover, the basolateral-to-apical permeability (Papp B→A) in data set [9] (setting [13]) amounted to 7.8 ± 0.5 ×10⁻⁶ cm/s; in data set [9] (Caco-2), 16.9 ± 1.1 ×10⁻⁶ cm/s.

On to `Cc1cn([C@H]2C[C@H](O)[C@@H](COS(N)(=O)=O)O2)c(=O)[nH]c1=O` [TMS], for which the IC50 is > 500 µM in [1] and > 500 µM in data set [2] (read-out: IC50, HepG2).

Regarding `NS(=O)(=O)OC[C@H]1O[C@@H](n2ccc(=O)[nH]c2=O)[C@H](O)[C@@H]1O` [UMS], the IC50 in data set [1] was > 500 µM; in data set [2] (read-out: IC50, HepG2), > 500 µM.

With `O=C(O)CC[C@H](NC(=O)Oc1ccc(N(CCI)CCI)cc1)C(=O)O` [ZD2767P], the “cell viability with prodrug and CPG2 supernatant” value in data set [10] (increasing prodrug, 48 hours, supernatant from CPG2-secreting HEK293T cells) is “significant decrease in cell viability”. The IC50 in data set [10] (with CPG2 supernatant) worked out at 1.7 µM.

In the case of `Nc1ncnc2c1ncn2[C@@H]1O[C@H](COS(=O)(=O)NCC2=C(C(=O)O)N3C(=O)[C@@H](NC(=O)Cc4cccs4)[C@H]3SC2)[C@@H](O)[C@H]1O` [ceph-AMS], in data set [11], the “SET2 cell viability with prodrug and Beta-lactamase supernatant” value is “significant decrease in cell viability”. In addition, the “Selective Index” value is >6 in data set [3] (Human T cell, prodrug vs AMS); ~3 in data set [5] (HEK293t, prodrug vs AMS); ~64 in data set [12].

Usually IC50 stands for the concentration at which inhibition is half-maximal. A word on the Papp A→B: it is the apparent permeability from the apical to the basolateral side of a cell layer. By Papp B→A is commonly meant how fast a substance crosses the layer from the basolateral side.
